For 14 compounds, IC50 results are on record in ChEMBL document CHEMBL1132329, “Synthesis and histone deacetylase inhibitory activity of new benzamide derivatives” (J Med Chem, 1999).

The test deals with Histone deacetylase. Put plainly: Inhibitory activity against partially purified histone deacetylase of human leukemia K562 cells. The test is classed as cell-based.

Molecules are shown by their SMILES. A value given as a limit tells only on which side of the number the result lay.

One may read the IC50 as the midpoint of a concentration-inhibition curve. The low end stands for greater potency in that assay, the high end for weaker potency in that assay. In the case of `Cc1ccc(NC(=O)c2ccc(CNC(=O)OCc3cccnc3)cc2)c(N)c1`, the IC50 is greater than 100 µM. The same measure for `Nc1cc(Cl)ccc1NC(=O)c1ccc(CNC(=O)OCc2cccnc2)cc1`: 40 µM.

The compound `Cc1ccc(N)c(NC(=O)c2ccc(CNC(=O)OCc3cccnc3)cc2)c1` gave an IC50 of 2.8 µM. The same measure for `COc1ccc(N)c(NC(=O)c2ccc(CNC(=O)OCc3cccnc3)cc2)c1`: 4.6 µM; for `Cc1cccc(NC(=O)c2ccc(CNC(=O)OCc3cccnc3)cc2)c1N`: greater than 100 µM; for `O=C(NCc1ccc(C(=O)Nc2ccccc2)cc1)OCc1cccnc1`: greater than 100 µM. Regarding `Nc1ccc(Cl)cc1NC(=O)c1ccc(CNC(=O)OCc2cccnc2)cc1`, the IC50 worked out at 7.7 µM. With `COc1ccc(NC(=O)c2ccc(CNC(=O)OCc3cccnc3)cc2)c(N)c1` the figure was 44 µM. On to `O=C(NCc1ccc(C(=O)Nc2ccccc2O)cc1)OCc1cccnc1`, for which the IC50 came to 2.2 µM.

On to `Nc1cccc(NC(=O)c2ccc(CNC(=O)OCc3cccnc3)cc2)c1`, for which the IC50 was greater than 100 µM. Take `Nc1ccc(F)cc1NC(=O)c1ccc(CNC(=O)OCc2cccnc2)cc1`: the half-inhibitory concentration (IC50) came to 6 µM. Regarding `Nc1ccc(NC(=O)c2ccc(CNC(=O)OCc3cccnc3)cc2)cc1`, the IC50 was greater than 100 µM. Compound `CCCC(=O)[O-].[Na+]` [SODIUM BUTYRATE] displayed an IC50 of 140 µM. Compound `CC(=O)Nc1ccccc1NC(=O)c1ccc(CNC(=O)OCc2cccnc2)cc1` had an IC50 greater than 100 µM.
